Experimental data from ChEMBL document CHEMBL1201862, “PubChem BioAssay data set” (2004).
Calls of active or inactive are those of the source.

Tests used:
[1] = cytotoxicity in HEK-293T cells, dose response, cytotoxicity control for BCR NF-kB inhibitor project, luminescence, B-cell screen hits (AID 489021); format: functional, cell-based;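 further: HEK-293T cells carrying an NF-kB luciferase reporter; cells exposed to compound for about 14 hours before viability readout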
[2] = target: T1, Aminopeptidase N (Plasmodium falciparum FcB1/Columbia, UniProt O96935); experiment: P. falciparum M1AAP inhibitors, biochemical, fluorogenic H-Leu-NHMec substrate, 1536-well (AID 1445); design: species or system Plasmodium falciparum 3D7, 3D7
T1 sequence (O96935 whole entry): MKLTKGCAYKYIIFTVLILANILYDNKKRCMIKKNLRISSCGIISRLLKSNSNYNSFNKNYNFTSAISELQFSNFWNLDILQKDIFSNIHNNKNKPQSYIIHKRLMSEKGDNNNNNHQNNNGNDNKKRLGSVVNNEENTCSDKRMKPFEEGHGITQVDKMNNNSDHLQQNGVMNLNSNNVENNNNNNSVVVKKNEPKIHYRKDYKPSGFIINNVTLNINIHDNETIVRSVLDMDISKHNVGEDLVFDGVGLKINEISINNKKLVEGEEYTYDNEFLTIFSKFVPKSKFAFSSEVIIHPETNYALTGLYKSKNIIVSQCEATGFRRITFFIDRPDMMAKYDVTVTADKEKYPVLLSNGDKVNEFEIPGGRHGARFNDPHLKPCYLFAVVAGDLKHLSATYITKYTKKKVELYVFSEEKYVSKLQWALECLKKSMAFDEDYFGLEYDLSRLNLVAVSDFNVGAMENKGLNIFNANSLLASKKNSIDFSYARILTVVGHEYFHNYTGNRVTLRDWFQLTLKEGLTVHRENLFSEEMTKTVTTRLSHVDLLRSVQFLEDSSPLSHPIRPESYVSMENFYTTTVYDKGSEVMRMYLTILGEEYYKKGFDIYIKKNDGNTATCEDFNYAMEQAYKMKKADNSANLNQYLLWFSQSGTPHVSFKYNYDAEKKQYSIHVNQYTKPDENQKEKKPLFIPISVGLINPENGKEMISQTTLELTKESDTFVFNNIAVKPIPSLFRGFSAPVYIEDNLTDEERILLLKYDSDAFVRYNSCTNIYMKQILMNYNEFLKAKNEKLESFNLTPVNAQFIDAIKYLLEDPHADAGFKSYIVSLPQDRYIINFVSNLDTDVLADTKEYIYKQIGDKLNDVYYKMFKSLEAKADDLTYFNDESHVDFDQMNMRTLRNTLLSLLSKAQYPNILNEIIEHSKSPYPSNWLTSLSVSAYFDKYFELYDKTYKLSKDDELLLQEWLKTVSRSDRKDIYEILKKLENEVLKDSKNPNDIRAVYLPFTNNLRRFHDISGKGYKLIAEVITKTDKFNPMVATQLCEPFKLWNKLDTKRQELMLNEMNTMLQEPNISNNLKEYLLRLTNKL

[3] = Luminescence Cell-Based Dose Confirmation HTS to Identify Activators of 5'UTR Stem-Loop Driven Alpha-Synuclein mRNA Translation in H4 Neuroglioblastoma Cells. [Related pubchem assays: 1829 (Project Summary), 1814 (Primary HTS)]; format: functional
[4] = test system: H4; experiment: Luminescence Cell-Based Dose Response HTS to Identify Activators of 5'UTR Stem-Loop Driven Prion Protein mRNA Translation in H4 Neuroglioblastoma Cells. [Related pubchem assays: 1829 (Project Summary), 1814 (Primary HTS)]; format: functional; conditions: Homo sapiens
[5] = Luminescence Cell-Based Dose Response HTS to Identify Activators of Luciferase Translation or Activity in H4 […] Cells. [Related pubchem assays: 1829 (Project Summary), 1814 (Primary HTS)]; format: functional
[6] = target: T2, Leucine aminopeptidase (Plasmodium falciparum 3D7, UniProt Q8IL11); experiment: P. falciparum M17LAP inhibitors, primary screen, biochemical, fluorogenic H-Leu-NHMec substrate, 1536-well (AID 1619); format: functional
T2 sequence (Q8IL11 whole entry): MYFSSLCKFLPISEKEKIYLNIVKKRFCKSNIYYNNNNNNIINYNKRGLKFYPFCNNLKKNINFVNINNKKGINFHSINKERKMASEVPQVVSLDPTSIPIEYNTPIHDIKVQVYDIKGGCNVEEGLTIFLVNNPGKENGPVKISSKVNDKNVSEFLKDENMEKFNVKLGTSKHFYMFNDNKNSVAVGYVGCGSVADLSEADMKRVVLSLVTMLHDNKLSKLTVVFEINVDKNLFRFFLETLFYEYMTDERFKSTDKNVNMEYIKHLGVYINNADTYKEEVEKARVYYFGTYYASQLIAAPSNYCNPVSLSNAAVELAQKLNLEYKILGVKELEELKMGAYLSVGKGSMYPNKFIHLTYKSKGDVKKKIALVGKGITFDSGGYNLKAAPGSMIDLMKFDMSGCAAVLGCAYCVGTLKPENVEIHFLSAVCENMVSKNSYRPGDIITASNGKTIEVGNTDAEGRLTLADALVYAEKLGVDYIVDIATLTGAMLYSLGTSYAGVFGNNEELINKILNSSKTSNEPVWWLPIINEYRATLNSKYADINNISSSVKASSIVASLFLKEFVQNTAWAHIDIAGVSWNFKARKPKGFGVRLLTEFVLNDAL

[7] = target: Eukaryotic translation initiation factor 4E (Mus musculus, UniProt P63073); experiment: eIF4E–eIF4G protein interaction inhibitors, dose response, biochemical, TR-FRET (AID 855); format: functional;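 further: potency for disrupting eIF4E binding to eIF4GI seen as loss of FRET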
[8] = target: T3, Rac GTPase-activating protein 1 (Homo sapiens, UniProt Q9H0H5); experiment: MgcRacGAP GTPase-activating activity inhibitors, confirmation, biochemical, ADP Hunter fluorescence, primary and confirmatory (AID 624330); format: functional
T3 sequence (Q9H0H5 whole entry): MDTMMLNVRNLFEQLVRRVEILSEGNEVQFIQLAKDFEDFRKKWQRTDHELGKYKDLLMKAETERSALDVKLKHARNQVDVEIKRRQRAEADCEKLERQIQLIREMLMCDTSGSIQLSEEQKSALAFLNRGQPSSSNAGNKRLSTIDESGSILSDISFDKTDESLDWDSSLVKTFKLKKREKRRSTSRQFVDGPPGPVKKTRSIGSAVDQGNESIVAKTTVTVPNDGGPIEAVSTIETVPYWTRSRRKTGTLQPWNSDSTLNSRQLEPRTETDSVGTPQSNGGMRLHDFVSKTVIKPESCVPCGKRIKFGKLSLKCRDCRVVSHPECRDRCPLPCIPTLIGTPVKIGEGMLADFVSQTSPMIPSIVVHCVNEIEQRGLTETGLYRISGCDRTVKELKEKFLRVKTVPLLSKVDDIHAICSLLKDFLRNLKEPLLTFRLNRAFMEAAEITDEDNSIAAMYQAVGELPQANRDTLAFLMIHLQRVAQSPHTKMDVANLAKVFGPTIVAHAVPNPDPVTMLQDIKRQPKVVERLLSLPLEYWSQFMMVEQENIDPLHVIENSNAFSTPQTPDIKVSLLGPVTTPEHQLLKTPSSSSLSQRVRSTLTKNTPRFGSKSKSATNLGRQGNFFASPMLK

[9] = cytotoxicity in HEK-293T cells, dose response, cytotoxicity control for TCR NF-kB inhibitor project, luminescence, T-cell screen hits (AID 489026); format: functional, cell-based;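 further: cells exposed to compound about 14 hours before the viability readout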
[10] = target: Induced myeloid leukemia cell differentiation protein Mcl-1 (Homo sapiens, UniProt Q07820); format: functional
[11] = target: T4, SUMO-activating enzyme (Homo sapiens, UniProt Q9UBT2); experiment: SUMOylation inhibitor hit validation, confirmation, SUMOylation inhibitor project, biochemical, AlphaScreen (AID 2018); format: functional
[12] = target: T4, SUMO-activating enzyme; experiment: inhibitors of in vitro SUMOylation cascade, primary screen, biochemical, HTRF, uHTS (AID 2006); format: protein-complex assay
[13] = Luminescence Cell-Based Dose Retest to Confirm Inhibitors of Cancer Stem Cells. [Related pubchem assays (depositor defined):AID2717, AID2721]; format: functional; conditions: Homo sapiens
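Wherever AC50 is given: cells exposed to compound for roughly 70 hours or longer before luminescence read.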

T4 sequence (Q9UBE0 whole entry): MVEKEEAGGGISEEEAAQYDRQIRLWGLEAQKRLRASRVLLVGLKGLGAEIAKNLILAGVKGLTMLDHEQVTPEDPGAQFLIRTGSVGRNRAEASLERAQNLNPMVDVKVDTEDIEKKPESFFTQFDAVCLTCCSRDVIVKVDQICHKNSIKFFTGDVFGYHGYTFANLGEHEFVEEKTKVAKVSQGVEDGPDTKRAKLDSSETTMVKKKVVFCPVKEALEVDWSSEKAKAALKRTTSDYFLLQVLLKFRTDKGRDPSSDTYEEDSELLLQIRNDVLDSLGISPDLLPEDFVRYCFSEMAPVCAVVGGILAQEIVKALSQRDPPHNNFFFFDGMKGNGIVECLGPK
T4 sequence (Q9UBT2 whole entry): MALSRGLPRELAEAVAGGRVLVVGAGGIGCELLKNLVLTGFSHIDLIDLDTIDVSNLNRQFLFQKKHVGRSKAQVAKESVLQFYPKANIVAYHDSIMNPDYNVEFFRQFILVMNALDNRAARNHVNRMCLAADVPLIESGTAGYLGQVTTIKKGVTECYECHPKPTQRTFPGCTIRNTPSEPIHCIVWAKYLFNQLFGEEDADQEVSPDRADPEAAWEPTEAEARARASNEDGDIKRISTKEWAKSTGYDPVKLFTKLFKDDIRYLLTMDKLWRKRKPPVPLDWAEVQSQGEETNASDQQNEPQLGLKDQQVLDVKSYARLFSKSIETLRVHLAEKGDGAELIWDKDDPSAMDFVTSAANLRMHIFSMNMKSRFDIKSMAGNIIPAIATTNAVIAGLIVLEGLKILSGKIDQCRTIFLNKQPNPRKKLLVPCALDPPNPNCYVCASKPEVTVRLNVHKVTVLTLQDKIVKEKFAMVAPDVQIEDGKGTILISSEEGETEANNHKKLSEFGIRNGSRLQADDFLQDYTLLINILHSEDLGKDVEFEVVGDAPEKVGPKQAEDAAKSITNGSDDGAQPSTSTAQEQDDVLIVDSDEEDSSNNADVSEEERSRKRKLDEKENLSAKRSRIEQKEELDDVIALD
Eukaryotic translation initiation factor 4E, sequence (P63073 whole entry): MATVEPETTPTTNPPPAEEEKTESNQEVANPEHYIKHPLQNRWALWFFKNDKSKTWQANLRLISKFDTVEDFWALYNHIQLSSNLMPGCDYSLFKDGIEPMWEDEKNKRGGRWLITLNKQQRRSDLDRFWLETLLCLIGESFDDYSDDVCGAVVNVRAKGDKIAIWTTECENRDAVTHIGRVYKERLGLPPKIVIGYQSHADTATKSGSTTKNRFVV
Induced myeloid leukemia cell differentiation protein Mcl-1, sequence (Q07820 whole entry): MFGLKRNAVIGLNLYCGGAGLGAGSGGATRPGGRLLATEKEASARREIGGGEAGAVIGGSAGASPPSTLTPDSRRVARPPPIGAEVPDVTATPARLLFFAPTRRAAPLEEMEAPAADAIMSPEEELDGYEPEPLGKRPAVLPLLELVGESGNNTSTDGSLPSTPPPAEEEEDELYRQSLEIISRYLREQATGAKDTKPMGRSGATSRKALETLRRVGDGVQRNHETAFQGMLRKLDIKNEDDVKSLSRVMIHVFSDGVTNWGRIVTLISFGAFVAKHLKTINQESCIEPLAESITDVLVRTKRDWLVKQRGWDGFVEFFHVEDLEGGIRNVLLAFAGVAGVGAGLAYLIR

## Cc1ccc(-c2nsc3c(N4CCC(C(N)=O)CC4)ncnc23)cc1
[1]
  IC50: > 80 µM (inactive)

## N#Cc1nc(/C=C/c2ccccc2)oc1NCCCN1CCOCC1
[2]
  IC50: 39.2 µM (active)
[3]
  EC50: 22.1 µM (active)
[4]
  EC50: 38 µM (active)
[5]
  EC50: 7.23 µM (active)

## Cc1cccc(Nc2nnc(S)s2)c1C
[6]
  IC50: 9.62 µM (active)
[7]
  IC50: > 64 µM (inactive)
[8]
  IC50: 67.2 µM (active)

## CCc1ccc(/C=N/NC(=O)c2cc(-c3ccncc3)nc3ccccc23)s1
[9]
  IC50: > 80 µM (inactive)

## O=C1OC(c2cccs2)=N/C1=C/c1ccc(-c2cccc(C(=O)O)c2)o1
[10]
  IC50: 1.53 µM (not active)
[7]
  IC50: 32.7 µM (inactive)

## COc1ccc(/C=C2\SC(=S)N(CCC(=O)Nc3ccc(O)cc3)C2=O)cc1
[1]
  IC50: > 80 µM (inactive)

## CCOC(=O)c1c(CSc2ccccc2)n(C)c2cc(Br)c(OCC(O)CNC(CO)(CO)CO)cc12 (stereo not given)
[11]
  IC50: 2.75 µM (active)
[12]
  IC50: 17.9 µM (active)
[13]
  AC50: 1.46 µM (active)
